According to patent US20250043299A1, “POINT MUTATIONS THAT BOOST AROMATIC AMINO ACID PRODUCTION AND CO2 ASSIMILATION IN PLANTS” (Wisconsin Alumni Research Foundation, priority 2021, published 2025):

Assays:
[1] = target: T1, Arabidopsis thaliana DHS1 (AtDHS1), wild type (DHS1^WT), SEQ ID NO:1 (Arabidopsis thaliana, UniProt P29976); experiment: DHS enzyme assay with effector, Arabidopsis DHS1 WT; type: biochemical; conditions: DHS1^WT; 4 mM E4P, 4 mM PEP, pH 7.4, 37° C.
T1 construct: without the predicted plastid transit peptide (amino acid residues; 49-525, 34-507, and 52-527, respectively); made in house; host or cells: E. coli Rosetta-2
T1 sequence (P29976 49-525): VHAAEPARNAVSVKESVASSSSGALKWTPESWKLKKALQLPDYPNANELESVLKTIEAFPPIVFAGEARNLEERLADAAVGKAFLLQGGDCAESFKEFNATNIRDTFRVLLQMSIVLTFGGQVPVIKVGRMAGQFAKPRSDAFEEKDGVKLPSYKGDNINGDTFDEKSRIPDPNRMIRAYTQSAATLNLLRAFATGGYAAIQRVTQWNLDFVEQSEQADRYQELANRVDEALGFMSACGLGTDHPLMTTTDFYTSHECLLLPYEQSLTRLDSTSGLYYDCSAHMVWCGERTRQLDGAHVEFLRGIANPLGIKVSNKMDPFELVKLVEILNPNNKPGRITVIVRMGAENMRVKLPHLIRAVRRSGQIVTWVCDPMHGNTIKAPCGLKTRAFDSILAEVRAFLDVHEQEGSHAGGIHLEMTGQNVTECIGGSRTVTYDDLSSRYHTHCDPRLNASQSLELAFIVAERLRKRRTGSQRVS
Protocol: To generate DHS proteins with individual sota mutations via site-directed mutagenesis, these pET28a plasmid templates were diluted by 500-fold, mixed with 0.04 U/μL Phusion DNA polymerase (Thermo Scientific), 0.2 mM deoxynucleoside triphosphates (dNTPs), 1× Phusion reaction buffer (Thermo Scientific), and 0.5 μM forward and reverse mutagenesis primers (Table 10). The PCR reaction was run using the following protocol: 98° C. for 30 s followed by 20 cycles of 10 s at 98° C., 20 s at 70° C., 4.5 min at 72° C. with a final extension at 72° C. for 10 min. The PCR products were purified using a QIAquick Gel Extraction Kit (QIAGEN), treated with FastDigest DpnI (Thermo Scientific) to digest methylated plasmid template DNA for 20 min at 37° C., and transformed into E. coli cells. The mutagenized pET28a plasmids were sequenced to confirm that no errors were introduced during the mutagenesis process.
The DHS enzyme assays were conducted using the colorimetric method that we recently described (9). Briefly, the enzyme solution (7.7 μl) containing 50 mM Hepes (pH 7.4) was preincubated with an effector molecule(s) at room temperature for 15 min. For assays using recombinant protein and enzyme fractions isolated from plant leaves, 0.01 to 0.1 μg and approximately 50 μg of proteins were used, respectively. After adding 0.5 μl of 0.1 M dithiothreitol, the samples were further incubated at room temperature for 15 min. During these incubations, the substrate solution containing 50 mM Hepes (pH 7.4), 2 mM MnCl2, 4 mM E4P, and 4 mM PEP at final concentration was preheated at 37° C. The enzyme reaction was started by adding 6.8 μl of the substrate solution, then incubated at 37° C. for 30 min, and terminated by adding 30 μl of 0.6 M trichloroacetic acid. After a brief centrifugation, 5 μl of 200 mM NaIO4 (sodium meta-periodate) in 9 N H3PO4 was added to oxidize the enzymatic product and to incubate at 25° C. for 20 min. To stop the oxidation reaction, 20 μl of 0.75 M NaAsO2 (sodium arsenite), which was dissolved in 0.5 M Na2SO4 and 0.05 M H2SO4, was added and immediately mixed. […]

[2] = target: T2, Arabidopsis thaliana DHS2 (SEQ ID NO:2) variant DHS2^A4 (sotaA4), G222S (Arabidopsis thaliana, UniProt Q00218, G222S); experiment: Differential scanning fluorimetry protein-ligand affinity analysis, DHS2 sotaA4; type: binding; conditions: ligand at 1 mM
T2 construct: without the predicted plastid transit peptide (amino acid residues; 49-525, 34-507, and 52-527, respectively); made in house; host or cells: E. coli
T2 sequence (Q00218 34-507 G222S): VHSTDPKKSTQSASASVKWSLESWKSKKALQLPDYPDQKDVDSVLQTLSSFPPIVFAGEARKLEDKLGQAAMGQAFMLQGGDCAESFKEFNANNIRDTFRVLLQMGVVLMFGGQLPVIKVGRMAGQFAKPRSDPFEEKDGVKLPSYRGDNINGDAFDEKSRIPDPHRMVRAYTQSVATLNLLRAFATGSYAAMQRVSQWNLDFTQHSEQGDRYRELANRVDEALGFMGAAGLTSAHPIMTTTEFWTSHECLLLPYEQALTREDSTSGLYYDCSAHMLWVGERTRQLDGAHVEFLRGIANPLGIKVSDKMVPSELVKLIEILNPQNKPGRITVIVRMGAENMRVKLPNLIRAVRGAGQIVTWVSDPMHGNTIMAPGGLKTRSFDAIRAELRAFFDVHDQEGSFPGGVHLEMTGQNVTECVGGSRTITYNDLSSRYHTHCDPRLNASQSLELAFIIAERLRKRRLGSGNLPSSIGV
Protocol: (A) Simplified pathway map of AAAs and AAA-derived metabolites used in the effector screening. […] Data are means±SEM (n=3 independent assays).
To examine the impact of the sota mutations on the interaction between DHS and AAA effectors (FIG. 22), a differential scanning fluorimetry (DSF) analysis (48) was conducted using the recombinant DHS2^WT and DHS2^A4 proteins. […] The fluorescence signal was monitored during the stepwise increase in temperature (1° C. per minute from 25° C. to 95° C.). The Tm was calculated by nonlinear regression analysis using the Boltzmann sigmoidal equation (48).

DHS3^WT = conditions: AAAs: from Yokoyama et al., Plant Cell, 2021; cited from earlier work
DHS1^WT = target: T3, DHS1^WT (Arabidopsis thaliana, UniProt P29976); conditions: AAAs, chorismate, caffeate: from Yokoyama et al., Plant Cell, 2021; cited from earlier work
T3 construct: without the predicted plastid transit peptide (amino acid residues; 49-525, 34-507, and 52-527, respectively); made in house; host or cells: E. coli Rosetta-2
T3 sequence (P29976 49-525): as the sequence (P29976 49-525) above

Row | SMILES | IC50 [1] [µM] | binding (DSF) [2] | IC50 of effector molecule on DHS3^WT (DHS3^WT) | IC50 of effector molecule on DHS1^WT (DHS1^WT)
1 | O=C(O)C(=O)Cc1ccc(O)cc1 [HPP, 4-Hydroxyphenylpyruvate] | 305 |  |  | 
2 | N[C@@H](Cc1c[nH]c2ccccc12)C(=O)O [Trp, tryptophan] |  | still binds Tyr and Trp | Not inhibited | Not inhibited
